Results as given in publication PMC2959128 (Journal of the American Chemical Society, 2010).

Target: T1, phosphopantetheinyl transferase Sfp (Bacillus subtilis, UniProt P39135)
T1 sequence (P39135 1-224): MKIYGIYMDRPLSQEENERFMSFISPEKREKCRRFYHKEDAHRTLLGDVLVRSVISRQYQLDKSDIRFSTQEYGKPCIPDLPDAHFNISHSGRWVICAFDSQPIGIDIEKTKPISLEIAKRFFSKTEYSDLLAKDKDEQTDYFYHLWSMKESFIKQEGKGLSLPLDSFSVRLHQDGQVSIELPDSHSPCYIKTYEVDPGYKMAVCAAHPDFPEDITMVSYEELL
Assay: acyl-phosphopantetheinyl transfer to apo-ACP
Assay type: biochemical
Conditions: DEBS apo-ACP6 as acceptor

For `CC[C@@H](O)[C@@H](C)C(=O)SCCNC(=O)CCNC(=O)[C@H](O)C(C)(C)COP(=O)(O)OP(=O)(O)OC[C@H]1O[C@@H](n2cnc3c(N)ncnc32)[C@H](O)[C@@H]1OP(=O)(O)O` [2a-SCoA], the “acyl-phosphopantetheinyl transfer to apo-ACP; LC-ESI(+)-MS” value was “from DEBS apo-ACP6 using the phosphopantetheinyl transferase Sfp”.
`CC/C=C(\C)C(=O)SCCNC(=O)CCNC(=O)[C@H](O)C(C)(C)COP(=O)(O)OP(=O)(O)OC[C@H]1O[C@@H](n2cnc3c(N)ncnc32)[C@H](O)[C@@H]1OP(=O)(O)O` [3-SCoA] was tested, and the “acyl-phosphopantetheinyl transfer to apo-ACP; LC-ESI(+)-MS” value was “from DEBS apo-ACP6 using the phosphopantetheinyl transferase Sfp”.
